# Measurements reported in patent US11759455B2, “Substituted 1H-imidazo[4,5-b]pyridin-2(3H)-ones and their use as GLUN2B receptor modulators” (JANSSEN PHARMACEUTICA NV, priority 2016, dated 2023).
# Molecular target: T1, human GluN1/GluN2B NMDA receptors (Homo sapiens, UniProt Q13224)
# T1 construct: expressed in transfected cells
# Assay: Cell-based calcium flux (FLIPR) assay on cloned human NR1/NR2B ion channels expressed in mammalian cells (standard and HTS buffer variants);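 note: stable Tet-On inducible cell line, Ca2+ influx triggered by glutamate at about EC40 plus 10 µM glycine, fluorescent dye read-out over 5 min, normalized to control wells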
# Details: standard assay buffer (0.5 mM MgCl2 dye loading; 137 mM NaCl, 4 mM KCl assay buffer), human GluN1/GluN2B cells, read-out: NR2B IC50 (μM) standard assay
# T1 sequence (Q13224 27-1484, other chains not shown): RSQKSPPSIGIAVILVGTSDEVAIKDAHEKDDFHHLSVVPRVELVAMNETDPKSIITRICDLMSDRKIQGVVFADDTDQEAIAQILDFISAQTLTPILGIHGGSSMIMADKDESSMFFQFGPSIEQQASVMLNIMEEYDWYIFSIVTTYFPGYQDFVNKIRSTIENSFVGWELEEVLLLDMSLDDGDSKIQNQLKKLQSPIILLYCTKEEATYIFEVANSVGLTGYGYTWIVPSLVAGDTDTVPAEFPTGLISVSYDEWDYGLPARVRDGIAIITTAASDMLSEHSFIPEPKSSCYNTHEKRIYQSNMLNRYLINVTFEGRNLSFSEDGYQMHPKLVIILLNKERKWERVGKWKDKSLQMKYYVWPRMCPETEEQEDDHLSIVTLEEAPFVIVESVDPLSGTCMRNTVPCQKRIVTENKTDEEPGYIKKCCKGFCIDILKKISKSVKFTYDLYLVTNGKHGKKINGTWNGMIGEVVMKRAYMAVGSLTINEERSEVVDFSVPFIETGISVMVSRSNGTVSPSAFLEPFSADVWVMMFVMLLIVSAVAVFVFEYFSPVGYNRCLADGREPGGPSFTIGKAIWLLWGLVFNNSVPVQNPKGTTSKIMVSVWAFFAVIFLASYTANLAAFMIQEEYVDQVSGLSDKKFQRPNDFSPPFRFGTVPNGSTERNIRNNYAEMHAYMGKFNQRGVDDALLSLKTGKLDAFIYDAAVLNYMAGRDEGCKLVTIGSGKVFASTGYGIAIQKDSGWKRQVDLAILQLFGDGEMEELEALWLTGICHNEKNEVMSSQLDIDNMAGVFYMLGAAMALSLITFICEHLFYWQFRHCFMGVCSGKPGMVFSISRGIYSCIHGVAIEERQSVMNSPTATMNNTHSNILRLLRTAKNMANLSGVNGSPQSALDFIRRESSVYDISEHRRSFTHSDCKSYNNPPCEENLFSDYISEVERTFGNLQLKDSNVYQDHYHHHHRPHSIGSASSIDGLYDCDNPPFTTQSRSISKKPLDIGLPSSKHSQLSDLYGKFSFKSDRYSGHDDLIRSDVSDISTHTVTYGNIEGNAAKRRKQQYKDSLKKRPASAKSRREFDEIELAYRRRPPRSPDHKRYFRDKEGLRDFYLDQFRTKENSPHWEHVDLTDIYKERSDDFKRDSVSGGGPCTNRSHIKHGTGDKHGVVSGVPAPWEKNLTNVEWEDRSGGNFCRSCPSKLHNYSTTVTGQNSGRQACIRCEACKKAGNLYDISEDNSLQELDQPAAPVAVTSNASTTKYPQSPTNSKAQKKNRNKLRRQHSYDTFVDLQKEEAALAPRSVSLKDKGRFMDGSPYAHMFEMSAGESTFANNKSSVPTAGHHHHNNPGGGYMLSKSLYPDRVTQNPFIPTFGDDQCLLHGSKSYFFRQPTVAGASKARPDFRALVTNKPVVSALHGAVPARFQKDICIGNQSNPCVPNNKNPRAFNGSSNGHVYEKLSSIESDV
row,IC50 [µM],Structure (SMILES)
1,0.049,"Cc1ccncc1Cn1c(=O)[nH]c2ncc(-c3ccc(F)c(C(F)(F)F)c3)cc21 [Example 314, 6-[4-Fluoro-3-(trifluoromethyl)phenyl]-1-[(4-methyl-3-pyridyl)methyl]-3H-imidazo[4,5-b]pyridin-2-one]"
2,> 10,"Cc1cccnc1Cn1c(=O)[nH]c2ncc(-c3cccc(C(F)(F)F)c3)cc21 [Example 315, 1-[(3-Methyl-2-pyridyl)methyl]-6-[3-(trifluoromethyl)phenyl]-3H-imidazo[4,5-b]pyridin-2-one]"
3,0.114,"Cc1cc(-c2cnc3[nH]c(=O)n(Cc4ncccc4C)c3c2)ccc1F [Example 316, 6-(4-Fluoro-3-methyl-phenyl)-1-[(3-methyl-2-pyridyl)methyl]-3H-imidazo[4,5-b]pyridin-2-one]"

# Same assay, conditions: standard assay buffer (0.5 mM MgCl2 in dye loading buffer; 137 mM NaCl, 4 mM KCl in assay buffer), human GluN1/GluN2B, read-out: NR2B IC50 (μM) standard assay
row,IC50 [µM],Structure (SMILES)
1,0.046,"Cc1cccnc1Cn1c(=O)[nH]c2ncc(-c3ccc(F)c(C)c3F)cc21 [Example 317, 6-(2,4-Difluoro-3-methyl-phenyl)-1-[(3-methyl-2-pyridyl)methyl]-3H-imidazo[4,5-b]pyridin-2-one]"
2,> 10,"Cc1cccnc1Cn1c(=O)[nH]c2ncc(-c3cc(F)cc(F)c3)cc21 [Example 318, 6-(3,5-Difluorophenyl)-1-[(3-methyl-2-pyridyl)methyl]-3H-imidazo[4,5-b]pyridin-2-one]"
3,> 10,"Cc1cccnc1Cn1c(=O)[nH]c2ncc(-c3cccc(F)c3F)cc21 [Example 319, 6-(2,3-Difluorophenyl)-1-[(3-methyl-2-pyridyl)methyl]-3H-imidazo[4,5-b]pyridin-2-one]"
4,0.075,"Cc1cc(F)ccc1-c1cnc2[nH]c(=O)n(CC(=O)N3CCC3)c2c1 [Example 320, 1-[2-(Azetidin-1-yl)-2-oxo-ethyl]-6-(4-fluoro-2-methyl-phenyl)-3H-imidazo[4,5-b]pyridin-2-one]"
5,0.014,"Cc1cc(-c2cnc3[nH]c(=O)n(CC(=O)N(C)C)c3c2)sc1Cl [Example 321, 2-[6-(5-Chloro-4-methyl-2-thienyl)-2-oxo-3H-imidazo[4,5-b]pyridin-1-yl]-N,N-dimethyl-acetamide]"
6,0.023,"Cc1cc(-c2cnc3c(c2)n(CC(=O)N(C)C)c(=O)n3C)sc1Cl [Example 322, 2-[6-(5-Chloro-4-methyl-2-thienyl)-3-methyl-2-oxo-imidazo[4,5-b]pyridin-1-yl]-N,N-dimethyl-acetamide]"
7,0.041,"O=C(Cn1c(=O)[nH]c2ncc(-c3ccc(C(F)(F)F)s3)cc21)N1CCC1 [Example 323, 1-[2-(azetidin-1-yl)-2-oxo-ethyl]-6-[5-(trifluoromethyl)-2-thienyl]-3H-imidazo[4,5-b]pyridin-2-one]"
8,0.015,"Cc1cc(-c2cnc3[nH]c(=O)n(CC(=O)N4CCC4)c3c2)sc1Cl [Example 324, 1-[2-(Azetidin-1-yl)-2-oxo-ethyl]-6-(5-chloro-4-methyl-2-thienyl)-3H-imidazo[4,5-b]pyridin-2-one]"
9,0.079,"Cn1c(=O)n(CC(=O)N2CCCC2)c2cc(-c3ccc(C(F)(F)F)s3)cnc21 [Example 328, 3-Methyl-1-(2-oxo-2-pyrrolidin-1-yl-ethyl)-6-[5-(trifluoromethyl)-2-thienyl]imidazo[4,5-b]pyridin-2-one]"
10,0.75,"Cc1c(-c2cnc3[nH]c(=O)n(CC(=O)N4CCC4)c3c2)cccc1C(F)(F)F [Example 329, 1-[2-(Azetidin-1-yl)-2-oxo-ethyl]-6-[2-methyl-3-(trifluoromethyl)phenyl]-3H-imidazo[4,5-b]pyridin-2-one]"
11,0.004,"CCC(=O)Cn1c(=O)[nH]c2ncc(-c3ccc(F)c(F)c3)cc21 [Example 330, 6-(3,4-Difluorophenyl)-1-(2-oxobutyl)-3H-imidazo[4,5-b]pyridin-2-one]"
12,0.012,"CCC(=O)Cn1c(=O)[nH]c2ncc(-c3ccc(F)c(C)c3)cc21 [Example 331, 6-(4-Fluoro-3-methyl-phenyl)-1-(2-oxobutyl)-3H-imidazo[4,5-b]pyridin-2-one]"
13,0.036,"CCC(=O)Cn1c(=O)[nH]c2ncc(-c3cccc(C)c3)cc21 [Example 332, 6-(m-Tolyl)-1-(2-oxobutyl)-3H-imidazo[4,5-b]pyridin-2-one]"
14,0.034,"Cc1c(F)ccc(-c2cnc3c(c2)n(Cc2cccnc2)c(=O)n3C)c1F [Example 339, 6-(2,4-Difluoro-3-methyl-phenyl)-3-methyl-1-(3-pyridylmethyl)imidazo[4,5-b]pyridin-2-one]"
15,0.052,"Cc1cc(-c2cnc3c(c2)n(Cc2cncc(F)c2)c(=O)n3C)ccc1F [Example 340, 6-(4-Fluoro-3-methyl-phenyl)-1-[(5-fluoro-3-pyridyl)methyl]-3-methyl-imidazo[4,5-b]pyridin-2-one]"
16,0.081,"Cc1c(F)ccc(-c2cnc3c(c2)n(Cc2cncc(F)c2)c(=O)n3C)c1F [Example 341, 6-(2,4-Difluoro-3-methyl-phenyl)-1-[(5-fluoro-3-pyridyl)methyl]-3-methyl-imidazo[4,5-b]pyridin-2-one]"
17,0.138,"Cn1c(=O)n(Cc2cncc(F)c2)c2cc(-c3cccc(OC(F)F)c3)cnc21 [Example 342, 6-[3-(Difluoromethoxy)phenyl]-1-[(5-fluoro-3-pyridyl)methyl]-3-methyl-imidazo[4,5-b]pyridin-2-one]"

row,IC50 [µM],Structure (SMILES)
1,0.256,"Cn1c(=O)n(Cc2cncc(F)c2)c2cc(-c3ccc(F)c(F)c3)cnc21 [Example 343, 6-(3,4-Difluorophenyl)-1-[(5-fluoro-3-pyridyl)methyl]-3-methyl-imidazo[4,5-b]pyridin-2-one]"
2,0.518,"Cn1c(=O)n(Cc2cncc(F)c2)c2cc(-c3cc(F)c(F)c(F)c3)cnc21 [Example 344, 1-[(5-Fluoro-3-pyridyl)methyl]-3-methyl-6-(3,4,5-trifluorophenyl)imidazo[4,5-b]pyridin-2-one]"
3,0.778,"Cn1c(=O)n(Cc2cncc(F)c2)c2cc(-c3cccc(OC(F)(F)F)c3)cnc21 [Example 345, 1-[(5-Fluoro-3-pyridyl)methyl]-3-methyl-6-[3-(trifluoromethoxy)phenyl]imidazo[4,5-b]pyridin-2-one]"
4,0.225,"Cn1c(=O)n(Cc2cncc(F)c2)c2cc(-c3cccc(F)c3F)cnc21 [Example 346, 6-(2,3-Difluorophenyl)-1-[(5-fluoro-3-pyridyl)methyl]-3-methyl-imidazo[4,5-b]pyridin-2-one]"
5,0.621,"Cn1c(=O)n(Cc2cncc(F)c2)c2cc(-c3ccc(F)c(F)c3F)cnc21 [Example 347, 1-[(5-Fluoro-3-pyridyl)methyl]-3-methyl-6-(2,3,4-trifluorophenyl)imidazo[4,5-b]pyridin-2-one]"
6,0.213,"Cn1c(=O)n(Cc2cncc(F)c2)c2cc(-c3cccc(Cl)c3)cnc21 [Example 348, 6-(3-Chlorophenyl)-1-[(5-fluoro-3-pyridyl)methyl]-3-methyl-imidazo[4,5-b]pyridin-2-one]"
7,0.107,"Cn1c(=O)n(Cc2cncc(F)c2)c2cc(-c3cccc(Cl)c3F)cnc21 [Example 349, 6-(3-Chloro-2-fluoro-phenyl)-1-[(5-fluoro-3-pyridyl)methyl]-3-methyl-imidazo[4,5-b]pyridin-2-one]"
8,0.029,"Cc1cccc(-c2cnc3c(c2)n(Cc2cncc(F)c2)c(=O)n3C)c1 [Example 350, 1-[(5-Fluoro-3-pyridyl)methyl]-3-methyl-6-(m-tolyl)imidazo[4,5-b]pyridin-2-one]"
9,0.251,"Cn1c(=O)n(Cc2cncc(F)c2)c2cc(-c3ccc(Cl)c(Cl)c3)cnc21 [Example 351, 6-(3,4-Dichlorophenyl)-1-[(5-fluoro-3-pyridyl)methyl]-3-methyl-imidazo[4,5-b]pyridin-2-one]"
10,0.052,"Cc1cccc(-c2cnc3c(c2)n(Cc2cncc(F)c2)c(=O)n3C)c1F [Example 352, 6-(2-Fluoro-3-methyl-phenyl)-1-[(5-fluoro-3-pyridyl)methyl]-3-methyl-imidazo[4,5-b]pyridin-2-one]"
11,0.144,"Cn1c(=O)n(Cc2cccnc2)c2cc(-c3cc(F)c(F)c(F)c3)cnc21 [Example 353, 3-Methyl-1-(3-pyridylmethyl)-6-(3,4,5-trifluorophenyl)imidazo[4,5-b]pyridin-2-one]"
12,1.03,"Cn1c(=O)n(Cc2cccnc2)c2cc(-c3cc(F)cc(F)c3)cnc21 [Example 354, 6-(3,5-Difluorophenyl)-3-methyl-1-(3-pyridylmethyl)imidazo[4,5-b]pyridin-2-one]"
13,0.044,"Cn1c(=O)n(Cc2cccnc2)c2cc(-c3ccc(F)c(Cl)c3)cnc21 [Example 355, 6-(3-Chloro-4-fluoro-phenyl)-3-methyl-1-(3-pyridylmethyl)imidazo[4,5-b]pyridin-2-one]"
14,0.07,"Cc1cccc(-c2cnc3c(c2)n(Cc2cccnc2)c(=O)n3C)c1 [Example 356, 3-Methyl-6-(m-tolyl)-1-(3-pyridylmethyl)imidazo[4,5-b]pyridin-2-one]"
15,0.118,"Cc1cccc(-c2cnc3c(c2)n(Cc2cccnc2)c(=O)n3C)c1F [Example 357, 6-(2-Fluoro-3-methyl-phenyl)-3-methyl-1-(3-pyridylmethyl)imidazo[4,5-b]pyridin-2-one]"
16,0.049,"Cn1c(=O)n(Cc2cccnc2)c2cc(-c3cccc(C(F)(F)F)c3F)cnc21 [Example 358, 6-[2-Fluoro-3-(trifluoromethyl)phenyl]-3-methyl-1-(3-pyridylmethyl)imidazo[4,5-b]pyridin-2-one]"
17,0.096,"Cn1c(=O)n(Cc2cccnc2)c2cc(-c3cccc(Cl)c3F)cnc21 [Example 359, 6-(3-Chloro-2-fluoro-phenyl)-3-methyl-1-(3-pyridylmethyl)imidazo[4,5-b]pyridin-2-one]"

row,Structure (SMILES),IC50 [µM]
1,"Cc1ccc(-c2cnc3c(c2)n(CC(=O)N2CCC2)c(=O)n3C)s1 [Example 326, 1-[2-(Azetidin-1-yl)-2-oxo-ethyl]-3-methyl-6-(5-methyl-2-thienyl)imidazo[4,5-b]pyridin-2-one]",0.022
2,"Cn1c(=O)n(CC(=O)N2CC(F)C2)c2cc(-c3ccc(C(F)(F)F)s3)cnc21 [Example 327, 1-[2-(3-Fluoroazetidin-1-yl)-2-oxo-ethyl]-3-methyl-6-[5-(trifluoromethyl)-2-thienyl]imidazo[4,5-b]pyridin-2-one]",0.071
